Literature values, collected in PMC8388771, “Cationic Peptidomimetic Amphiphiles Having a N-Aryl- or N-Naphthyl-1,2,3-Triazole Core Structure Targeting Clostridioides (Clostridium) difficile: Synthesis, Antibacterial Evaluation, and an In Vivo C. difficile Infection Model” (Antibiotics, 2021).
Converted amounts (≈) assume the structure as drawn.

Legend:
[1] = tested on: C. difficile 132 (RT027); parameters: method as in PMID 30831407; details: Table 2; cited from earlier work
[2] = tested on: S. aureus ATCC 29213; parameters: method as in ref 30 (1), 31 (2, 4), 19 (3); details: Table 2; ref 30 (1), 31 (2, 4), 19 (3); cited from earlier work
[3] = tested on: S. aureus NCTC 10442; parameters: method as in ref 31 (2, 4), 19 (3); details: Table 2; MRSA; ref 31 (2, 4), 19 (3); cited from earlier work
[4] = tested on: E. faecalis ATCC 29212; parameters: method as in ref 30 (1), 31 (2, 4), 19 (3); details: Table 2; ref 30 (1), 31 (2, 4), 19 (3); cited from earlier work
[5] = tested on: S. pneumoniae ATCC 49619; parameters: method as in ref 30 (1), 31 (2, 4), 19 (3); details: Table 2; ref 30 (1), 31 (2, 4), 19 (3); cited from earlier work
[6] = tested on: E. coli ATCC 25922; parameters: method as in ref 30 (1), 31 (2, 4), 19 (3); details: Table 2; ref 30 (1), 31 (2, 4), 19 (3); cited from earlier work
[7] = tested on: HEK293 cells; parameters: method as in PMID 30831407; details: Table 2; cited from earlier work
[8] = tested on: S. aureus ATCC 43300; parameters: method as in PMID 30831407; details: Table 2; MRSA; cited from earlier work
[9] = tested on: sheep erythrocytes; details: cited from earlier work
[10] = parameters: method as in PMID 30901686; details: cited from earlier work; for appearance in the solubility assay: Figure 1
[11] = tested on: C. difficile; details: Figure 1; cited from earlier work
[12] = tested on: C. difficile; parameters: method as in PMID 30901686; details: murine CDI model; 10% DMSO group 0%; cited from earlier work
[13] = tested on: C. difficile strain M7404 (RT027); parameters: method as in ref 30 (compound 1), 19 (compound 3); details: Table 2 footnote g; ref 30 (compound 1), 19 (compound 3); cited from earlier work
[14] = tested on: C. difficile strain R20291; parameters: method as in ref 30 (compound 1), 19 (compound 3); details: Table 2 footnote h; ref 30 (compound 1), 19 (compound 3); cited from earlier work

SMILES | MIC C. difficile 132 (RT027) [1] [µg/mL] | MIC S. aureus ATCC 29213 [2] [µg/mL] | MIC S. aureus NCTC 104422 [3] [µg/mL] | MIC E. faecalis ATCC 29212 [4] [µg/mL] | MIC S. pneumoniae ATCC 49619 [5] [µg/mL] | MIC E. coli ATCC 25922 [6] [µg/mL] | CC50 [7] [µg/mL] | MIC S. aureus ATCC 43300 [8] [µg/mL] | % hemolysis at 50 µg/mL ([9]; Table 2 HC50 column, footnote i, sheep erythrocytes) [% ^i] | appearance in the solubility assay [10] | SR = solubility ratio relative to that of compound 1 [10] | MIC against C. difficile [11] [µg/mL] | survival rate at 24 h [12] [%] | MIC C. difficile strain M7404 (RT027) [13] | MIC C. difficile strain R20291 (RT207) [14] | Haemolysis ([9]; Figure 1) [%] | in vitro hemolytic activity ([9]; in words) | solubility during preparation in a 10% DMSO solution ([10]; precipitation)
CC(C)CCOc1ccc2ccccc2c1-c1c(OCc2cn(C[C@@H](CCCCN)NC(=O)[C@@H](CCCNC(=N)N)NC(=O)CCc3ccccc3)nn2)ccc2ccccc12 [Compound 2] | 32 (≈ 38.1 µM) | 4 (≈ 4.76 µM) | 4 (≈ 4.76 µM) | 4 (≈ 4.76 µM) | 4 (≈ 4.76 µM) | 8 (≈ 9.52 µM) | 27.4 (≈ 32.6 µM) | 2 (≈ 2.38 µM) | 94 | homogenous suspension | 3 | 8 (≈ 9.52 µM) | 50 |  |  |  |  | 
CC(C)CCOC(=O)[C@H](CC(C)C)NC(=O)[C@@H](CCCNC(=N)N)NC(=O)[C@@H](CCCCN)NC(=O)COc1ccc2ccccc2c1-c1c(OCCC(C)C)ccc2ccccc12 [Compound 1] |  | 2 (≈ 2.27 µM) |  | 2 (≈ 2.27 µM) | 2 (≈ 2.27 µM) | 16 (≈ 18.1 µM) |  |  |  | homogenous suspension | 1 | 8 (≈ 9.07 µM) |  | 8 ^g μg/mL | 8 ^h μg/mL |  |  | 
CC(C)CCOc1ccc2ccccc2c1-c1c(OCC(=O)N[C@H](CCCNC(=N)N)Cn2cc(-c3ccccc3)nn2)ccc2ccccc12 [Compound 3] |  | 2 (≈ 2.92 µM) | 2 (≈ 2.92 µM) | 4 (≈ 5.85 µM) | 8 (≈ 11.7 µM) | >128 |  |  |  | flocculation | 1 | 8 (≈ 11.7 µM) |  | 8 ^g μg/mL | 8 ^h μg/mL | 86 | high | poor solubility
